Test results reported in article PMC5218480 (PLoS ONE, 2017).

System: MV-4-11 cells
Assay: Gene expression microarray analysis (Affymetrix PrimeView) and GSEA
Type: cell-based, human
Parameters: RFU PODN (11730768_x_at) / Fold change /veh PODN (11730768_x_at) / RFU LINC00158 (11744669_a_at) / Fold change /veh LINC00158 (11744669_a_at) / RFU DUSP10 (11751237_a_at) / Fold change /veh DUSP10 (11751237_a_at) / RFU ID3 (11757404_x_at) / Fold change /veh ID3 (11757404_x_at) / RFU PLEKHG5 (11737974_s_at) / Fold change /veh PLEKHG5 (11737974_s_at) / RFU LRRC4B (11730491_at) / Fold change /veh LRRC4B (11730491_at) / RFU GIMAP4 (11747438_a_at) / Fold change /veh GIMAP4 (11747438_a_at) / RFU KRT8 (11758183_x_at) / Fold change /veh KRT8 (11758183_x_at) / RFU CNN1 (11734310_a_at) / Fold change /veh CNN1 (11734310_a_at) / RFU VPS37D (11726825_at) / Fold change /veh VPS37D (11726825_at) / RFU C10orf10 (11716522_x_at) / Fold change /veh C10orf10 (11716522_x_at) / RFU KIR2DL2 /// KIR2DL4 /// KIR2DL5A /// KIR2DL5B /// KIR2DS1 /// KIR2DS2 /// KIR2DS3 /// KIR2DS4 /// KIR3DL3 /// KIR3DL3 /// KIR3DS1 (11738374_at) / Fold change /veh KIR2DL2 /// KIR2DL4 /// KIR2DL5A /// KIR2DL5B /// KIR2DS1 /// KIR2DS2 /// KIR2DS3 /// KIR2DS4 /// KIR3DL3 /// KIR3DL3 /// KIR3DS1 (11738374_at) / RFU C1QL1 (11718748_at) / Fold change /veh C1QL1 (11718748_at) / RFU TMPRSS4 (11747572_a_at) / Fold change /veh TMPRSS4 (11747572_a_at) / RFU HAMP (11756126_x_at) / Fold change /veh HAMP (11756126_x_at) / RFU RNFT2 (11725882_a_at) / Fold change /veh RNFT2 (11725882_a_at) / RFU NR4A2 (11747474_a_at) / Fold change /veh NR4A2 (11747474_a_at) / RFU ABCC12 (11746883_a_at) / Fold change /veh ABCC12 (11746883_a_at) / RFU TMEM136 (11760407_x_at) / Fold change /veh TMEM136 (11760407_x_at) / RFU CLDN22 /// WWC2 (11732394_at) / Fold change /veh CLDN22 /// WWC2 (11732394_at) / RFU HLA-DPB1 (11760878_x_at) / Fold change /veh HLA-DPB1 (11760878_x_at) / RFU SPINT1 (11716480_a_at) / Fold change /veh SPINT1 (11716480_a_at) / RFU GAP43 (11754022_s_at) / Fold change /veh GAP43 (11754022_s_at) / RFU A4GNT (11735810_at) / Fold change /veh A4GNT (11735810_at) / RFU PRB3 (11715151_x_at) / Fold change /veh PRB3 (11715151_x_at) / RFU TUBB4B (11761932_at) / Fold change /veh TUBB4B (11761932_at) / RFU CAPN14 (11732068_a_at) / Fold change /veh CAPN14 (11732068_a_at) / RFU TMCC2 (11721928_a_at) / Fold change /veh TMCC2 (11721928_a_at) / RFU IRGQ (11745062_a_at) / Fold change /veh IRGQ (11745062_a_at) / RFU FAM174B (11720279_a_at) / Fold change /veh FAM174B (11720279_a_at) / RFU TMPRSS4 (11748680_a_at) / Fold change /veh TMPRSS4 (11748680_a_at) / RFU FAM212B (11763350_a_at) / Fold change /veh FAM212B (11763350_a_at) / RFU PLEKHG5 (11743358_a_at) / Fold change /veh PLEKHG5 (11743358_a_at) / RFU ZSCAN30 (11745921_a_at) / Fold change /veh ZSCAN30 (11745921_a_at) / RFU CMKLR1 (11741424_a_at) / Fold change /veh CMKLR1 (11741424_a_at) / RFU LOC101060620 /// MAPK8IP1 (11723275_at) / Fold change /veh LOC101060620 /// MAPK8IP1 (11723275_at) / RFU SPTSSB (11747773_x_at) / Fold change /veh SPTSSB (11747773_x_at) / RFU PRSS12 (11739890_at) / Fold change /veh PRSS12 (11739890_at) / RFU BIN1 (11741810_x_at) / Fold change /veh BIN1 (11741810_x_at) / RFU WNT11 (11732464_a_at) / Fold change /veh WNT11 (11732464_a_at) / RFU C10orf10 (11716521_a_at) / Fold change /veh C10orf10 (11716521_a_at) / RFU C5orf56 (11738089_at) / Fold change /veh C5orf56 (11738089_at) / RFU CYB561 (11721691_x_at) / Fold change /veh CYB561 (11721691_x_at) / RFU ANKRD19P (11752326_a_at) / Fold change /veh ANKRD19P (11752326_a_at) / RFU OR2T12 /// OR2T33 /// OR2T8 (11738714_s_at) / Fold change /veh OR2T12 /// OR2T33 /// OR2T8 (11738714_s_at) / RFU VCAN (11748164_a_at) / Fold change /veh VCAN (11748164_a_at) / RFU JSRP1 (11732532_at) / Fold change /veh JSRP1 (11732532_at) / RFU KRTAP10-11 (11738290_x_at) / Fold change /veh KRTAP10-11 (11738290_x_at) / RFU MYO3A (11730013_a_at) / Fold change /veh MYO3A (11730013_a_at) / RFU EBF3 (11725865_a_at) / Fold change /veh EBF3 (11725865_a_at) / RFU CAMK2N1 (11719241_x_at) / Fold change /veh CAMK2N1 (11719241_x_at) / RFU C5orf56 (11738088_a_at) / Fold change /veh C5orf56 (11738088_a_at) / RFU OLFML3 (11715873_a_at) / Fold change /veh OLFML3 (11715873_a_at) / RFU LOC100653217 /// NTM (11731650_a_at) / Fold change /veh LOC100653217 /// NTM (11731650_a_at) / RFU MAPK11 (11762145_a_at) / Fold change /veh MAPK11 (11762145_a_at) / RFU FIZ1 (11724087_x_at) / Fold change /veh FIZ1 (11724087_x_at) / RFU OASL (11726364_x_at) / Fold change /veh OASL (11726364_x_at) / RFU SOX15 (11748057_x_at) / Fold change /veh SOX15 (11748057_x_at) / RFU CD79A (11719716_a_at) / Fold change /veh CD79A (11719716_a_at) / RFU HIST1H1D (11736915_at) / Fold change /veh HIST1H1D (11736915_at) / RFU CASKIN2 (11723855_a_at) / Fold change /veh CASKIN2 (11723855_a_at) / RFU LOC730098 (11760151_x_at) / Fold change /veh LOC730098 (11760151_x_at) / RFU OR4N2 (11742367_at) / Fold change /veh OR4N2 (11742367_at) / RFU PRRT2 (11749266_a_at) / Fold change /veh PRRT2 (11749266_a_at) / RFU SNX32 (11753110_a_at) / Fold change /veh SNX32 (11753110_a_at) / RFU CDHR5 (11726645_a_at) / Fold change /veh CDHR5 (11726645_a_at) / RFU RCAN1 (11760418_a_at) / Fold change /veh RCAN1 (11760418_a_at) / RFU FAM167A (11723789_a_at) / Fold change /veh FAM167A (11723789_a_at) / RFU FAM26E (11764081_at) / Fold change /veh FAM26E (11764081_at) / RFU ISYNA1 (11749810_s_at) / Fold change /veh ISYNA1 (11749810_s_at) / RFU ACY1 (11761880_at) / Fold change /veh ACY1 (11761880_at) / RFU 11764098_at / Fold change /veh 11764098_at / RFU SAMD14 (11745864_x_at) / Fold change /veh SAMD14 (11745864_x_at) / RFU NPB (11741838_a_at) / Fold change /veh NPB (11741838_a_at) / RFU TMPRSS6 (11731388_a_at) / Fold change /veh TMPRSS6 (11731388_a_at) / RFU KRTAP10-2 (11738614_at) / Fold change /veh KRTAP10-2 (11738614_at) / RFU ARHGAP8 /// PRR5-ARHGAP8 (11727945_x_at) / Fold change /veh ARHGAP8 /// PRR5-ARHGAP8 (11727945_x_at) / RFU KRTAP5-7 /// NADSYN1 (11734609_at) / Fold change /veh KRTAP5-7 /// NADSYN1 (11734609_at) / RFU RASL12 (11751679_a_at) / Fold change /veh RASL12 (11751679_a_at) / RFU CDKN2B (11736163_a_at) / Fold change /veh CDKN2B (11736163_a_at) / RFU PRF1 (11729649_at) / Fold change /veh PRF1 (11729649_at) / RFU, ZNF638 /// ZNF638-IT1 / Fold change vs veh, ZNF638 /// ZNF638-IT1 / RFU, PANK3 / Fold change vs veh, PANK3 / RFU, SH3YL1 / Fold change vs veh, SH3YL1 / RFU, ZEB2 / Fold change vs veh, ZEB2 / RFU, NRIP1 / Fold change vs veh, NRIP1 / RFU, PTTG1IP / Fold change vs veh, PTTG1IP / RFU, CAPN2 / Fold change vs veh, CAPN2 / RFU, MED14 / Fold change vs veh, MED14 / RFU, SNORA58 / Fold change vs veh, SNORA58 / RFU, C1orf63 / Fold change vs veh, C1orf63 / RFU, LRRFIP1 / Fold change vs veh, LRRFIP1 / RFU, NDUFAF7 / Fold change vs veh, NDUFAF7 / RFU, SLC12A2 / Fold change vs veh, SLC12A2 / RFU, IBTK / Fold change vs veh, IBTK / RFU, ESF1 / Fold change vs veh, ESF1 / Fold change vs veh, TMEM50B / RFU, TAOK1 / Fold change vs veh, TAOK1 / RFU, ACBD3 / Fold change vs veh, ACBD3 / RFU, TMA16 / Fold change vs veh, TMA16 / RFU, RWDD3 / Fold change vs veh, RWDD3 / RFU, BCAT1 / Fold change vs veh, BCAT1 / RFU, EDEM3 / Fold change vs veh, EDEM3 / RFU, TMEM33 / Fold change vs veh, TMEM33 / RFU, WDR75 / Fold change vs veh, WDR75 / RFU, AHCTF1 / Fold change vs veh, AHCTF1 / RFU, TFRC / Fold change vs veh, TFRC / RFU, ZDHHC17 / Fold change vs veh, ZDHHC17 / RFU, NOM1 / Fold change vs veh, NOM1 / RFU, ARL8B / Fold change vs veh, ARL8B / RFU, ZBTB11 / Fold change vs veh, ZBTB11 / RFU, TAMM41 / Fold change vs veh, TAMM41 / RFU, KIAA1704 /// LOC100996395 / Fold change vs veh, KIAA1704 /// LOC100996395 / RFU, ING1 / Fold change vs veh, ING1 / RFU, TRMT61B / Fold change vs veh, TRMT61B / RFU, FUBP3 / Fold change vs veh, FUBP3 / RFU, TP53 / Fold change vs veh, TP53 / RFU, TNKS2 / Fold change vs veh, TNKS2 / RFU, ZFP14 / Fold change vs veh, ZFP14 / RFU, ACTR2 / Fold change vs veh, ACTR2 / RFU, PPP3R1 / Fold change vs veh, PPP3R1 / RFU, PIK3R1 / Fold change vs veh, PIK3R1 / RFU, HNRNPA1 / Fold change vs veh, HNRNPA1 / RFU, RNF170 / Fold change vs veh, RNF170 / RFU, ZNF28 / Fold change vs veh, ZNF28 / RFU, RNGTT / Fold change vs veh, RNGTT / RFU, OGT / Fold change vs veh, OGT / RFU, BRD1 / Fold change vs veh, BRD1 / RFU, MARS / Fold change vs veh, MARS / RFU, ZNF655 / Fold change vs veh, ZNF655 / RFU, FAHD1 / Fold change vs veh, FAHD1 / RFU, BDP1 / Fold change vs veh, BDP1 / RFU, LRRCC1 / Fold change vs veh, LRRCC1 / RFU, ARID1A / Fold change vs veh, ARID1A / RFU, ZNF146 / Fold change vs veh, ZNF146 / RFU, ZNF330 / Fold change vs veh, ZNF330 / RFU, GPN3 / Fold change vs veh, GPN3 / RFU, C9orf123 / Fold change vs veh, C9orf123 / RFU, N4BP2L2 / Fold change vs veh, N4BP2L2 / RFU, ARFIP1 / Fold change vs veh, ARFIP1 / RFU, FAM179B / Fold change vs veh, FAM179B / RFU, BCL10 / Fold change vs veh, BCL10 / RFU, UHRF1BP1L / Fold change vs veh, UHRF1BP1L / RFU, BET1 / Fold change vs veh, BET1 / RFU, CNOT2 / Fold change vs veh, CNOT2 / RFU, ZNF268 / Fold change vs veh, ZNF268 / Fold change vs veh, ZNF507 / RFU, DGCR2 / Fold change vs veh, DGCR2 / RFU, WDSUB1 / Fold change vs veh, WDSUB1 / Fold change vs veh, HSP90B1 /// MIR3652 / RFU, ADSS / Fold change vs veh, ADSS / RFU, GK / Fold change vs veh, GK / RFU, ZNF148 / Fold change vs veh, ZNF148 / RFU, TAF9 / Fold change vs veh, TAF9 / RFU, SLC1A5 / Fold change vs veh, SLC1A5 / RFU, SLMO2 / Fold change vs veh, SLMO2 / RFU, ABCC4 / Fold change vs veh, ABCC4 / RFU, LOC101060439 /// RAP1B / Fold change vs veh, LOC101060439 /// RAP1B / RFU, RFX7 / Fold change vs veh, RFX7 / RFU, GTPBP10 / Fold change vs veh, GTPBP10 / RFU, CNEP1R1 / Fold change vs veh, CNEP1R1 / RFU, BIVM-ERCC5 /// ERCC5 / Fold change vs veh, BIVM-ERCC5 /// ERCC5 / RFU, ILF3 / Fold change vs veh, ILF3 / RFU 11762660_at / Fold change /veh 11762660_at / RFU VCAN (11757783_s_at) / Fold change /veh VCAN (11757783_s_at) / RFU DDX43 (11728927_at) / Fold change /veh DDX43 (11728927_at) / RFU KRT8 (11758188_x_at) / Fold change /veh KRT8 (11758188_x_at) / RFU NKD1 (11759106_at) / Fold change /veh NKD1 (11759106_at) / RFU SRD5A1 (11742802_a_at) / Fold change /veh SRD5A1 (11742802_a_at) / RFU TPSAB1 /// TPSB2 (11721975_s_at) / Fold change /veh TPSAB1 /// TPSB2 (11721975_s_at) / RFU GSTM3 (11746129_a_at) / Fold change /veh GSTM3 (11746129_a_at) / RFU IL23R (11737362_x_at) / Fold change /veh IL23R (11737362_x_at) / RFU TMEM51 (11727254_a_at) / Fold change /veh TMEM51 (11727254_a_at) / RFU PIWIL2 (11732686_x_at) / Fold change /veh PIWIL2 (11732686_x_at) / RFU ORM1 (11744905_x_at) / Fold change /veh ORM1 (11744905_x_at) / RFU CCDC152 (11743942_at) / Fold change /veh CCDC152 (11743942_at) / RFU ECM1 (11717891_a_at) / Fold change /veh ECM1 (11717891_a_at) / RFU IL23R (11748794_a_at) / Fold change /veh IL23R (11748794_a_at) / RFU TNFAIP8L3 (11732012_x_at) / Fold change /veh TNFAIP8L3 (11732012_x_at) / RFU MBOAT4 (11741988_at) / Fold change /veh MBOAT4 (11741988_at) / RFU 11764193_at / Fold change /veh 11764193_at / RFU TMEM53 (11763286_at) / Fold change /veh TMEM53 (11763286_at) / RFU MAGEB2 (11727129_at) / Fold change /veh MAGEB2 (11727129_at) / RFU TMEM200A (11744735_a_at) / Fold change /veh TMEM200A (11744735_a_at) / RFU CCDC152 (11751479_a_at) / Fold change /veh CCDC152 (11751479_a_at) / RFU FAM211A (11726209_a_at) / Fold change /veh FAM211A (11726209_a_at) / RFU RGS16 (11746705_a_at) / Fold change /veh RGS16 (11746705_a_at) / RFU VCAN (11755009_s_at) / Fold change /veh VCAN (11755009_s_at) / RFU RHOB (11743442_s_at) / Fold change /veh RHOB (11743442_s_at) / RFU RGS16 (11720943_a_at) / Fold change /veh RGS16 (11720943_a_at) / RFU RGS16 (11720944_at) / Fold change /veh RGS16 (11720944_at) / RFU, VPS4B / Fold change vs veh, VPS4B / RFU, CREB1 / Fold change vs veh, CREB1 / RFU, DNAJC13 / Fold change vs veh, DNAJC13 / RFU, GNAQ / Fold change vs veh, GNAQ / RFU, CDK5R1 / Fold change vs veh, CDK5R1 / RFU, ZRANB3 / Fold change vs veh, ZRANB3 / RFU, CUL4A / Fold change vs veh, CUL4A / RFU, CCNY / Fold change vs veh, CCNY / RFU, UFL1 / Fold change vs veh, UFL1 / RFU, COG3 / Fold change vs veh, COG3 / RFU, DIAPH2 / Fold change vs veh, DIAPH2 / RFU, SKA2 / Fold change vs veh, SKA2 / RFU, AFF3 / Fold change vs veh, AFF3 / RFU, LMF1 / Fold change vs veh, LMF1 / RFU, IPO11 / Fold change vs veh, IPO11 / RFU, DFFB / Fold change vs veh, DFFB / RFU, FOXP1 / Fold change vs veh, FOXP1 / RFU, CARD8 / Fold change vs veh, CARD8 / RFU, STRN3 / Fold change vs veh, STRN3 / RFU, ADK / Fold change vs veh, ADK / RFU, RASSF2 / Fold change vs veh, RASSF2 / RFU, WIPF1 / Fold change vs veh, WIPF1 / RFU, LARP1B / Fold change vs veh, LARP1B / RFU, RASA1 / Fold change vs veh, RASA1 / RFU, RB1 / Fold change vs veh, RB1 / RFU, PPFIA1 / Fold change vs veh, PPFIA1 / RFU, MAT2A / Fold change vs veh, MAT2A / RFU, CCT5 / Fold change vs veh, CCT5 / RFU, WDR92 / Fold change vs veh, WDR92 / RFU, CUX1 / Fold change vs veh, CUX1 / RFU, TTC7A / Fold change vs veh, TTC7A / RFU, TMEM135 / Fold change vs veh, TMEM135 / RFU, DEPTOR / Fold change vs veh, DEPTOR / RFU, CPM / Fold change vs veh, CPM / RFU, DNAJB6 / Fold change vs veh, DNAJB6 / RFU, CACNA2D3 / Fold change vs veh, CACNA2D3 / RFU, DTX4 / Fold change vs veh, DTX4 / RFU, TFCP2 / Fold change vs veh, TFCP2 / RFU, GMCL1 /// GMCL1P1 / Fold change vs veh, GMCL1 /// GMCL1P1 / RFU, AEBP2 / Fold change vs veh, AEBP2 / RFU, SNHG1 /// SNORD22 /// SNORD25 /// SNORD26 /// SNORD27 /// SNORD28 /// SNORD29 /// SNORD31 / Fold change vs veh, SNHG1 /// SNORD22 /// SNORD25 /// SNORD26 /// SNORD27 /// SNORD28 /// SNORD29 /// SNORD31 / Fold change (Aza/veh), C12orf56 (ProbeSet 11735607_a_at) / Fold change (ACY-1035/veh), C12orf56 (ProbeSet 11735607_a_at) / Fold change (Aza/veh), FGFR1OP (ProbeSet 11751329_s_at) / Fold change (ACY-1035/veh), FGFR1OP (ProbeSet 11751329_s_at) / Fold change (Aza/veh), VPS36 (ProbeSet 11739960_a_at) / Fold change (ACY-1035/veh), VPS36 (ProbeSet 11739960_a_at) / RFU SYPL1 (11715823_x_at) / Fold change /veh SYPL1 (11715823_x_at) / RFU IGFBP7 (11715501_s_at) / Fold change /veh IGFBP7 (11715501_s_at) / RFU REEP3 (11722064_at) / Fold change /veh REEP3 (11722064_at) / RFU IGLL1 (11728026_x_at) / Fold change /veh IGLL1 (11728026_x_at): dose or concentration left out as unconfirmed
Conditions: ProbeSet 11726703_a_at; LIST B

## Nc1ccc(-c2cccs2)cc1NC(=O)c1ccc2c(c1)cc(C1CC1)n2CCN1CCOCC1 [ACY-1035]
  Fold change vs veh, BCL10: 0.84
